Measured values taken from ChEMBL document CHEMBL5729007, “Triaryl compounds for treatment of PD-L1 diseases” (2022).

target: Programmed cell death 1 ligand 1 (Homo sapiens, UniProt Q9NZQ7); assay: Enzyme-Linked Immunosorbent Assay—ELISA: 96 Well plates were coated with […] of human PD-L1 (obtained from R&D) in PBS overnight at 4° C. The wells were then blocked with 2% BSA in PBS (W/V) with 0.05% TWEEN-20 for 1 hour at 37° C. The plates were washed 3 times with PBS/0.05% TWEEN-20 and the compounds were serial diluted (1:5) in dilution medium and added to the ELISA plates. Human PD-1 and biotin 0.31 μg/mL (ACRO Biosystems) were added and incubated for 1 hour at 37° C. then washed 3 times with PBS/0.05% TWEEN-20. A second block was performed with 2% BSA in PBS (W/V)/0.05% TWEEN-20 for 10 min at 37° C. and the plates were washed 3 times with PBS/0.05% TWEEN-20. Streptavidin-HRP was added for 1 hour at 37° C. then the plates were washed 3 times with PBS/0.05% TWEEN-20. TMB substrate was added and reacted for 20 min at 37° C. A stop solution (2 N aqueous H2SO4) was added. The absorbance was read at 450 nm using a micro-plate spectrophotometer.
Sequence (Q9NZQ7 whole entry): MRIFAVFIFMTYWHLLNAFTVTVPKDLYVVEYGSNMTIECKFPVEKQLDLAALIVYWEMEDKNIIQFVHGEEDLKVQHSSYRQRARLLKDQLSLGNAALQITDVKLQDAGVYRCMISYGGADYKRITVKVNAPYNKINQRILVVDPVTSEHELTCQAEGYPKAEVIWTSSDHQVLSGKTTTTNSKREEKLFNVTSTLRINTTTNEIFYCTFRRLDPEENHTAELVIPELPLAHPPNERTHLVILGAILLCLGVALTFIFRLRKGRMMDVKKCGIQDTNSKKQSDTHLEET

Compound | IC50 [nM]
COc1cc(-c2cccc(-c3cccc(Nc4nccc5nccnc45)c3C)c2Cl)cc(F)c1CN[C@@H]1CCOC[C@@H]1O | < 10
COc1cc(-c2cccc(-c3cccc(NC(=O)c4cncn(C)c4=O)c3C)c2Cl)cc(F)c1CN[C@@H]1CNC(=O)C1 | < 10
COc1cc(-c2cccc(-c3cccc(NC(=O)c4cn(C)c(=O)n(C)c4=O)c3C)c2C)cc(F)c1CN(C)CCO | < 10
COc1cc(-c2cccc(-c3cccc(NC(=O)c4ccc(OCC(=O)O)cn4)c3C)c2C)cc(F)c1CN | < 10
COc1cc(-c2cccc(-c3cccc(NC(=O)c4ccc(C(N)=O)cn4)c3C)c2C)cc(F)c1CN | < 10
COc1cc(-c2cccc(-c3cccc(NC(=O)c4cn(C)c(=O)n(C)c4=O)c3Cl)c2Cl)cc(F)c1CN[C@@H]1CCOC[C@@H]1O | < 10
COc1cc(-c2cccc(-c3cccc(NC(=O)c4cn(C)c(=O)n(C)c4=O)c3F)c2Cl)cc(F)c1CNCC1CCC(=O)N1 (stereo not given) | < 10
COc1cc(-c2cccc(-c3cccc(NC(=O)c4cn(C)c(=O)n(C)c4=O)c3C)c2C)cc(F)c1CN | < 10
COc1cc(-c2cccc(-c3cccc(NC(=O)c4cn(C)c(=O)n(C)c4=O)c3Cl)c2Cl)cc(F)c1CN[C@@H]1CNC(=O)C1 | < 10
COc1cc(-c2cccc(-c3cccc(NC(=O)c4cnc(C(N)=O)cn4)c3C)c2C)cc(F)c1CN | < 10
